One data set concerns bacterial genomic DNA. Nature of the data set: Agarose gel electrophoresis of bacterial genomic DNA in presence of soybean trypsin inhibitor and EDTA. The class given is biochemical, E. coli. The note with it: 20 minutes 37° C. How it is done: Samples containing bacterial genomic DNA, and ES or DNase in the absence and presence of EDTA and a soybean trypsin inhibitor were loaded onto an agarose gel to observe the effects of these inhibitors on DNase activity. A soybean trypsin inhibitor (Sigma) was washed 4 times with PBS and each time centrifuged into a pellet and the PBS removed as the supernatant. On the 5th washing, 500 μl of PBS were used to suspend the trypsin inhibitor and this was equally distributed between the samples to be treated. Samples of ES 162.3 μg/ml and PBS (control) were treated with the soybean trypsin inhibitor in order to remove any serine proteinases present. These samples were treated with STI 3 times in order to achieve maximal removal of serine proteinases, again following each treatment the solution was centrifuged and the ES/PBS removed as the supernatant. Following washing, these solutions were transferred to a fresh Eppendorf.
15.34 μl of 1.385 mg/ml bacterial genomic DNA was diluted to 0.1 mg/ml in 184.6 μl of either sterile PBS or 5 mM EDTA. 121.1 μg/ml DNase was also made up (10 μl of 1 mg/ml diluted in 72.6 μl of PBS.) In order to make up the samples, 50 μl of the appropriate one of these DNA solutions plus 3.125 μl of STI treated/untreated DNase/ES/PBS. […]

For data set [1], the system named is DNA methyl green. Nature of the data set: DNA methyl green assay of ES and DNase activity in the presence of EDTA. The class given is biochemical. The following applies: 5.07 μg/ml ES, 3.78 μg/ml DNase. How it is done:
125 μl of 81.15 μg/ml ES was added to both 1875 μl DNA methyl green (0.2 mg/ml) and DNA methyl green containing 5 mM EDTA. Final concentrations are therefore 5.07 μg/ml ES and 4.7 mM EDTA. DNase was diluted to 121.1 μg/ml, diluted 1 in 2 and added to 1875 μl of DNA methyl green and DNA methyl green containing EDTA. The activity of STI treated ES was also assayed in the same way, in the presence of or in the absence of EDTA. These samples were then incubated in a water bath at 37° C. 100 μl samples were taken every 2 minutes (in triplicate) and added to 150 μl of 0.083M sodium citrate in a 96 well plate. The plates were left to stand overnight and the absorbance then read at 630 nm in an Anthos Lucy1 microplate luminometer.

Data set [2] deals with DNA methyl green. Put plainly: Dose dependency curves (DNA methyl green, 96 well plate). The class given is biochemical. The note with it: for EC50: 37° C. On the procedure:
In order to further characterise ES, dose dependency curves were created enabling the EC50 value to be determined. ES was diluted to a concentration of 13.40 μg/ml in PBS, following this 1 in 10 dilutions in PBS were then performed. DNase was diluted to a concentration of 10 μg/ml in PBS, this was then also subject to 1 in 10 dilutions. 20 μl of each dilution was added to 180 μl of 0.2 mg/ml DNA methyl green in a 96 well plate (done in triplicate). Absorbance readings were then taken after 3, 18, and 24 hours at 630 nm in an Anthos Lucy1 microplate luminometer. The dose dependency curves were created by plots of log10 concentration (mcg/ml) against mean absorbance (630 nm) in the statistical analysis program, GraphPad Prism™.

As to DNase, the “degradation of bacterial genomic DNA in presence of EDTA” value in the data set with bacterial genomic DNA (5 mM EDTA) was “no DNase activity”. The “degradation of bacterial genomic DNA in absence of EDTA” value with bacterial genomic DNA (untreated, no EDTA) is “no DNase activity”. Besides, the “DNase activity in the presence of EDTA” value with DNA methyl green [1] (EDTA) is reported as “activity almost abolished”. The “DNase activity in the absence of EDTA” value in the data set with DNA methyl green [1] (no EDTA) is given as “relatively similar activity”. Besides, the EC50 is 0.1921 µg/mL with DNA methyl green [2] (absorbance reading at 3 hours), 0.0605 µg/mL in the data set with DNA methyl green [2] (absorbance reading at 18 hours) and 0.0571 µg/mL in the data set with DNA methyl green [2] (absorbance reading at 24 hours). The “potency of DNase relative to ES” value in the data set on DNA methyl green [2] (from EC50 values) amounted to 3 times.

By EC50 is commonly meant the concentration that produces a half-maximal response. A high value points to a less potent agent.

(Values after US20090304668A1, “LARVAL POLYPEPTIDES HAVING A NUCLEASE ACTIVITY” (The Secretary of State for Defence, priority 2006, published 2009).)
